Measurements from PubChem BioAssay AID624405 (Broad Institute, 2012).
Results filed as inconclusive are left out.

Test system: C2C12 myotubes + simvastatin, ATP luminescence, 48 h
Experiment: suppressors of statin myotoxicity in myotubes, dose response, cell-based, C2C12 myotubes, ATP luminescence, cherry pick (AID 624405);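 further: myotubes are challenged with simvastatin at 10 µM to lower ATP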

SMILES	AC40
C[C@H](CO)N1C[C@H](C)[C@@H](CN(C)Cc2ccc(Cl)c(Cl)c2)Oc2ccc(NC(=O)C3CCCCC3)cc2CC1=O	17.4 µM
NC1=NC(=Nc2ccccc2)c2ccccc21	16.3 µM
Cc1noc(C)c1S(=O)(=O)Nc1ccc2c(c1)CC(=O)N([C@H](C)CO)C[C@@H](C)[C@H](CN(C)Cc1ccc(-c3ccccc3)cc1)O2	20.3 µM
CC(C)(C)NC(=O)CN(C(=O)Cn1nnc(-c2ccccc2F)n1)c1cccc2c1CCCC2	19.4 µM
C[C@H]1C[C@@H](C)C(=O)[C@@H]([C@H](O)CC2CC(=O)NC(=O)C2)C1	< 0.16 µM
Oc1ccc(Cl)cc1C1=NNC(c2cccs2)C1 (stereo not given)	11.4 µM
CCOc1ccccc1NC(=O)c1ccccc1N(C)S(C)(=O)=O	5.38 µM
Cc1nnsc1NC(=O)OCc1ccc(C(F)(F)F)cc1	8.84 µM
CC(=O)c1ccc(-c2cc([C@H]3[C@H]4C=CC[C@@H](C)[C@@H]4C(=O)N3Cc3ccccc3)ccc2F)cc1	8.76 µM
O=C(NCc1ccco1)C1CCN(C(=O)c2cc3sccc3n2Cc2ccc(F)cc2)CC1	12.1 µM
C[C@@H]1CN([C@H](C)CO)C(=O)c2cc(NC(=O)Nc3cccc4ccccc34)ccc2O[C@@H]1CN(C)Cc1ccc(C(=O)Nc2ccccc2N)cc1	6.44 µM
O=C(OCc1nc2ccccc2s1)c1cnccn1	9.58 µM
COCc1nc2ccccc2n1CCCOc1ccccc1	13.4 µM
COC(=O)c1cc(=O)n(CCc2ccccc2F)c(=Nc2ccc(F)c(Cl)c2)s1	2.81 µM
COc1ccc(N(Cc2cc3ccccc3[nH]c2=O)S(=O)(=O)c2ccccc2)cc1	5.81 µM
C[C@H](CO)N1C[C@H](C)[C@H](CN(C)C(=O)Nc2ccc(F)cc2)Oc2ncc(C#Cc3ccc(C(F)(F)F)cc3)cc2C1=O	13.5 µM
C[C@@H]1CN([C@@H](C)CO)C(=O)c2cccc(NC(=O)Nc3ccc4c(c3)OCO4)c2O[C@H]1CN(C)Cc1ccc(C(=O)Nc2ccccc2N)cc1	9.42 µM
C[C@H]1CN([C@@H](C)CO)C(=O)Cc2cc(NC(=O)CCCCCC(=O)Nc3ccccc3N)ccc2O[C@H]1CN(C)Cc1ccccc1	3.02 µM
C[C@H](CO)N1C[C@H](C)[C@H](CN(C)Cc2ccc(Cl)c(Cl)c2)Oc2ccc(NC(=O)CCCCCC(=O)Nc3ccccc3N)cc2CC1=O	13.4 µM
C[C@H](CO)N1C[C@H](C)[C@H](CN(C)Cc2ccc(C(=O)Nc3ccccc3N)cc2)Oc2ccc(NC(=O)Nc3cccc4ccccc34)cc2CC1=O	10.5 µM
O=C(C[C@H]1CC[C@@H]2[C@H](COC[C@@H](O)CN2Cc2ccc(Oc3ccccc3)cc2)O1)N1CCCCC1	3.19 µM
CC1(Cc2ccc(Cl)cc2)C(=O)Nc2ccc(-c3cccnc3)cc21 (stereo not given)	15.8 µM
C=CCn1c(=O)c2c(nc3n2CC(C)CN3c2cccc(OC)c2)n(C)c1=O (stereo not given)	10.5 µM

SMILES	AC40
C[C@H]1CN([C@@H](C)CO)C(=O)Cc2cc(NC(=O)CCCCCC(=O)Nc3ccccc3N)ccc2O[C@H]1CN(C)Cc1ccc(C(F)(F)F)cc1	4.15 µM
O=C(CCNS(=O)(=O)c1ccc(Br)cc1)NCc1ccc2c(c1)OCO2	14.8 µM
O=C(CNc1cccc(F)c1)N1CCc2ccccc2C1	3.26 µM
COc1ccccc1C(=O)Nc1ccc2c(c1)OCO2	4.38 µM
C[C@@H]1CN([C@H](C)CO)C(=O)Cc2cc(NS(=O)(=O)c3ccc(Cl)cc3)ccc2O[C@H]1CN(C)Cc1ccccc1	4.44 µM
C[C@@H]1CN([C@H](C)CO)C(=O)Cc2cc(NS(=O)(=O)c3cn(C)cn3)ccc2O[C@@H]1CN(C)Cc1ccc(Cl)c(Cl)c1	2.69 µM
C[C@@H]1CN([C@@H](C)CO)C(=O)c2cc(NS(=O)(=O)c3ccc(Cl)cc3)ccc2O[C@H]1CN(C)C(=O)Nc1cccc2ccccc12	9.49 µM
COc1ccc2c(Cl)c(-c3nnc(SCC(=O)c4ccccc4)n3C)sc2c1	1.13 µM
CN(c1ccc(Cl)cc1)c1cc(=O)n(C)c2ccccc12	< 0.16 µM
COc1cc(CNc2ncnc3c2ncn3[C@H]2CN(Cc3cccc4ccccc34)C[C@@H](CO)O2)cc(OC)c1OC	1.36 µM
CCCCNc1oc(-c2cccs2)nc1S(=O)(=O)c1ccccc1	7.73 µM
COc1ccc(S(=O)(=O)Nc2cccc3c2O[C@H](CN(C)C(=O)Nc2ccc(F)cc2)[C@H](C)CN([C@@H](C)CO)C3=O)cc1	6.89 µM
N#Cc1nc(-c2ccco2)oc1N1CCCC1	0.199 µM
CCOc1ccc2nc(N3CCCC(C(=O)N4CCN(CC)CC4)C3)sc2c1 (stereo not given)	6.42 µM
C[C@H]1CN([C@@H](C)CO)C(=O)Cc2cc(NS(=O)(=O)c3ccc(F)cc3)ccc2O[C@@H]1CN(C)Cc1ccc(Cl)c(Cl)c1	15.8 µM
CCCNC(=O)Cc1c(O)c2ccccc2[nH]c1=O	18.6 µM
Cc1ccc(S(=O)(=O)Nc2ccc3c(c2)C(=O)N([C@H](C)CO)C[C@H](C)[C@H](CN(C)Cc2ccc(C(=O)Nc4ccccc4N)cc2)O3)cc1	17 µM
C[C@@H]1CN([C@@H](C)CO)C(=O)Cc2cc(NC(=O)CCCCCC(=O)Nc3ccccc3N)ccc2O[C@H]1CN(C)Cc1ccccc1	12.2 µM
Cc1ccc(C2OC(=O)c3ccccc32)cc1 (stereo not given)	2.21 µM
Cc1noc2ncnc(Sc3ccc(Cl)cc3)c12	3.11 µM
CCOC(=O)N1CCN(C(=O)CN(Cc2ccccc2)S(=O)(=O)c2ccc(OC)c(Cl)c2)CC1	15.7 µM
CCn1c(-c2ccc(-c3ccccc3)cc2)c[nH]c1=S	3.72 µM
Cc1noc(C)c1NC(=O)Nc1cccc2c1O[C@H](CN(C)Cc1ccc(-c3ccccc3)cc1)[C@@H](C)CN([C@H](C)CO)C2=O	12.6 µM

SMILES	AC40
O=C(CSCc1cnn(-c2ccccc2)c1-n1cccc1)NCc1cccs1	18.9 µM
C[C@H]1CN([C@@H](C)CO)S(=O)(=O)c2ccc(-c3cccc(F)c3)cc2O[C@@H]1CN(C)S(=O)(=O)c1ccc(F)cc1	15.5 µM
Fc1ccccc1OCCCCn1cncn1	18.6 µM
O=C(C#Cc1ccccc1)Nc1cccc(F)c1	3.42 µM
COc1ccc(S(=O)(=O)Nc2ccc3c(c2)CC(=O)N([C@@H](C)CO)C[C@@H](C)[C@H](CN(C)Cc2ccc(-c4ccccc4)cc2)O3)cc1	11 µM
C[C@H](CO)N1C[C@H](C)[C@H](CN(C)CC2CCCCC2)Oc2ccc(NC(=O)CCCCCC(=O)Nc3ccccc3N)cc2CC1=O	10.1 µM
CC1(Cc2ccccc2OC(F)(F)F)C(=O)Nc2ccc(S(=O)(=O)NC3CCCCC3)cc21 (stereo not given)	6.62 µM
CCCC(c1nnnn1Cc1ccc(OC)cc1)N1CCN(c2ccccc2)CC1 (stereo not given)	5.18 µM
CC(=O)C(=Nc1ccccc1Cl)NNc1ccc(Cl)cc1	6.58 µM
O=C(NCC(c1cccnc1)N1CCN(c2ccc(F)cc2)CC1)c1ccc2c(c1)OCO2 (stereo not given)	5.7 µM
CC(=O)c1cc(F)c(N2CCCC2)cc1C	17.4 µM
CC(C)Nc1ncnc2c1cnn2Cc1ccc(Cl)cc1	0.544 µM
O=c1[nH]cnc2scc(-c3ccsc3)c12	13.2 µM
Cc1ccc(S(=O)(=O)Nc2ccc3c(c2)CC(=O)N([C@@H](C)CO)C[C@H](C)[C@@H](CN(C)Cc2ccc(-c4ccccc4)cc2)O3)cc1	18.9 µM
COc1ccc(S(=O)(=O)Nc2ccc3c(c2)CC(=O)N([C@H](C)CO)C[C@H](C)[C@@H](CN(C)Cc2ccc(Cl)c(Cl)c2)O3)cc1	15.9 µM
Cc1cccc(C(=O)Nc2cc(OCc3cccc(F)c3)c(Cl)cc2Cl)c1	15.9 µM
COc1ccc(CC2NCC(O)C2OC(C)=O)cc1 (stereo not given)	0.275 µM
O=S(=O)(c1ccccc1)c1nc(-c2ccco2)oc1N1CCCCCC1	6.08 µM
COc1ccccc1NS(=O)(=O)c1cccc(NC(=O)c2nc3nc(C)cc(C)n3n2)c1	8.63 µM
Cc1ccc(-c2nnc(CSc3nnc(COc4cccc5ccccc45)n3-c3ccccc3)o2)cc1	18.2 µM
CCC(C(=O)NC1CCCC1)N(C(=O)Cn1nnc(-c2ccc(OC)c(OC)c2)n1)c1cccc(O)c1 (stereo not given)	8.39 µM
CCCCn1c(C(C)NC(=O)c2cccs2)nc2ccccc21 (stereo not given)	3.75 µM
C[C@@H]1CN([C@H](C)CO)C(=O)c2cc(NC(=O)Cc3cn(C)c4ccccc34)ccc2O[C@@H]1CN(C)Cc1ccc(C(=O)Nc2ccccc2N)cc1	9.69 µM

SMILES	AC40
Cc1[nH]nc2c1C1(C(=O)N(Cc3ccc(Cl)cc3)c3ccccc31)C(C#N)=C(N)O2 (stereo not given)	4.72 µM
Cc1ccc(C2(c3ccc(C)cc3)NC(=O)N(Cc3c(C)noc3C)C2=O)cc1	5.45 µM
C[C@H]1CN([C@@H](C)CO)C(=O)Cc2cc(NC(=O)CCCCCC(=O)Nc3ccccc3N)ccc2O[C@H]1CN(C)CC1CCCCC1	2.67 µM
Cc1ccc(NS(=O)(=O)c2ccc(-n3cccn3)cc2)cc1F	5.32 µM
C[C@@H]1CN([C@H](C)CO)C(=O)Cc2cc(NC(=O)CCCCCC(=O)Nc3ccccc3N)ccc2O[C@@H]1CN(C)CC1CCCCC1	15.4 µM
C[C@H](CO)N1C[C@H](C)[C@@H](CN(C)S(=O)(=O)c2ccc(Cl)cc2)Oc2ccc(NC(=O)NC3CCCCC3)cc2CC1=O	10.3 µM
Cc1ccc(S(=O)(=O)Nc2ccc3c(c2)CC(=O)N([C@H](C)CO)C[C@H](C)[C@@H](CN(C)Cc2ccc4c(c2)OCO4)O3)cc1	14.1 µM
C[C@H](CO)N1C[C@H](C)[C@@H](CN(C)Cc2ccc(Cl)c(Cl)c2)Oc2ccc(NS(C)(=O)=O)cc2CC1=O	9.83 µM
Cc1nn(Cc2ccccc2Cl)c2sc(C(=O)NCc3ccc4c(c3)OCO4)cc12	12.5 µM
CC(C)CC#Cc1cnc2c(c1)C(=O)N([C@H](C)CO)C[C@H](C)[C@@H](CN(C)C(=O)Cc1ccccc1)O2	9.7 µM
COc1cc2c(cc1OC)C(=O)CCS2	1.88 µM
C[C@@H]1CN([C@H](C)CO)C(=O)Cc2cc(NS(=O)(=O)c3ccc(Cl)cc3)ccc2O[C@H]1CN(C)CC1CCCCC1	9.96 µM
C[C@@H]1CN([C@H](C)CO)C(=O)Cc2cc(NC(=O)CCCCCC(=O)Nc3ccccc3N)ccc2O[C@@H]1CN(C)Cc1ccccc1	14.4 µM
Oc1ccc(-c2csc(Nc3ccc4c(c3)OCO4)n2)c(O)c1	10.5 µM
Cc1ccc(O)c(NC(=O)c2cc(-c3cccs3)on2)c1	14.3 µM
O=C1N2CCCc3cccc(c32)C12Nc1ccccc1S2 (stereo not given)	14.5 µM
C[C@H](CO)N1C[C@H](C)[C@H](CN(C)Cc2ccc(C(=O)Nc3ccccc3N)cc2)Oc2ccc(N(C)C)cc2C1=O	2.53 µM
C=CCn1c(=O)[nH]c(=O)c2c(N)c(C(=O)c3ccc(OC)cc3)sc21	14.5 µM
CS(=O)(=O)N1CCN(C(=O)c2cc(-c3ccncc3)nc3ccc(Cl)cc23)CC1	11.4 µM
COc1ccccc1-c1noc(-c2cccs2)n1	0.575 µM
Cc1ccc(S(=O)(=O)N(C)C[C@@H]2Oc3ccc(NS(=O)(=O)c4ccc(Cl)cc4)cc3C(=O)N([C@H](C)CO)C[C@@H]2C)cc1	8.22 µM
